The structures appear in SMILES notation. Like-named read-outs stand apart in the source and are kept apart here.

This note sets out measurements from patent US20250034110A1, “LPAR1 ANTAGONISTS AND USES THEREOF” (Pipeline Therapeutics, Inc., priority 2021, published 2025).

The target of the assay is human LPAR1 (Homo sapiens, UniProt Q92633). The experiment in a line: In vitro functional assay of lysophosphatidic acid receptor 1 activity (calcium flux). The class given is cell-based.
Where [1] appears, read: B103 cells stably expressing human LPAR1, calcium flux (Fluo-4 NW) after lysophosphatidic acid (18:1) at EC80, 100 pM to 10 μM, read-out: LPAR1 IC50.

Chain of human LPAR1 (Q92633 whole entry): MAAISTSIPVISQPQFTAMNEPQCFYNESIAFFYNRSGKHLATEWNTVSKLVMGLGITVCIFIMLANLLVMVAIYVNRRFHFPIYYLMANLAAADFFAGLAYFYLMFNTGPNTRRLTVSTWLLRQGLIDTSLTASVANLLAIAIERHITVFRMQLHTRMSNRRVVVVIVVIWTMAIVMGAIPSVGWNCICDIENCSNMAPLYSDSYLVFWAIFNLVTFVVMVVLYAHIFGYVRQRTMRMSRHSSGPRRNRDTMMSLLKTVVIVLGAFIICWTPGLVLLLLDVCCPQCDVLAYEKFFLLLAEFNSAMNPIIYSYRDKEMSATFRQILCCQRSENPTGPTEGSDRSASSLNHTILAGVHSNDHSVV

For orientation: IC50 means the concentration needed to halve the response being measured. As for `Cc1ccc(NC(=O)N(c2ccccc2C(C)C)C2CN(C3COC3)C2)c(OC(F)F)n1` [Example 22, 3-(2-(difluoromethoxy)-6-methylpyridin-3-yl)-1-(2-isopropylphenyl)-1-(1-(oxetan-3-yl)azetidin-3-yl)urea], the IC50 under setting [1] fell in the range of 100 to 1000 nM.

`Cc1ccc(NC(=O)N(c2ccccc2C(C)C)C2CC(NS(C)(=O)=O)C2)c(OC(F)F)n1` (stereo not shown) [Example 272, N-(3-(3-(2-(difluoromethoxy)-6-methylpyridin-3-yl)-1-(2-isopropylphenyl)ureido)cyclobutyl)methanesulfonamide]: under setting [1], the half-maximal inhibitory concentration (IC50) fell in the range of 10 to 100 nM.

Consider `COc1ccc(NC(=O)N(c2ccccc2C(C)C)[C@H]2CC[C@H](C(=O)O)CC2)c(OCC(F)F)n1` [Example 289, (1r,4r)-4-(3-(2-(2,2-difluoroethoxy)-6-methoxypyridin-3-yl)-1-(2-isopropylphenyl)ureido)cyclohexane-1-carboxylic acid], for which the IC50 under setting [1] was less than 10 nM.

On to `COc1cc(C)ccc1NC(=O)N(c1ccccc1C(C)C)[C@H]1CC[C@H](C(=O)O)CC1` [Example 327, (1r,4r)-4-(1-(2-isopropylphenyl)-3-(2-methoxy-4-methylphenyl)ureido)cyclohexane-1-carboxylic acid], for which the IC50 under setting [1] was less than 10 nM.

As for `COc1ccc(NC(=O)N(c2ccccc2C(C)C)[C@H]2CC[C@@H](C(=O)O)CC2)c(OC(F)F)n1` [Example 145], the half-inhibitory concentration (IC50) under setting [1] was in the range of 100 to 1000 nM.

As for `Cc1ccc(NC(=O)N(c2ccccc2C(C)C)[C@@H]2CC[C@H](C(=O)O)C2)c(OC(F)F)n1` [Example 302], the IC50 under setting [1] fell in the range of 10 to 100 nM.

On to `CC(C)Oc1ccc(NC(=O)N(c2ccccc2C(C)C)[C@H]2CC[C@H](C(=O)O)CC2)c(OCC(F)F)n1` [Example 259, (1r,4r)-4-(3-(2-(2,2-difluoroethoxy)-6-isopropoxypyridin-3-yl)-1-(2-isopropylphenyl)ureido)cyclohexane-1-carboxylic acid], for which the IC50 under setting [1] is 10 to 100 nM.

Take `CC(=O)N1CC(N(C(=O)Nc2ccc(C)cc2OC(F)F)c2ccccc2C(C)C)C1` [Example 117, 1-(1-acetylazetidin-3-yl)-3-(2-(difluoromethoxy)-4-methylphenyl)-1-(2-isopropylphenyl)urea]: the IC50 under setting [1] was in the range of 10 to 100 nM.

For the compound `COC(=O)[C@H]1C[C@H](N(C(=O)Nc2cc(F)c(F)cc2OC(F)F)c2ccccc2C(C)C)C1` [Example 163, methyl (1r,3r)-3-(3-(2-(difluoromethoxy)-4,5-difluorophenyl)-1-(2-isopropylphenyl)ureido)cyclobutane-1-carboxylate], under setting [1], the IC50 was more than 1000 nM.

On to `Cc1ccc(NC(=O)N(C[C@H]2CC[C@@H](C(=O)O)CC2)c2ccccc2C(C)C)c(OC(F)F)n1` [Example 172], for which, under setting [1], the IC50 was in the range of 10 to 100 nM.

With `Cc1ccc(NC(=O)N(c2ccccc2C(C)C)[C@H]2CC[C@@H](c3cccnc3)CC2)c(OC(F)F)n1` [Example 260, 3-(2-(difluoromethoxy)-6-methylpyridin-3-yl)-1-(2-isopropylphenyl)-1-((1s,4s)-4-(pyridin-3-yl)cyclohexyl)urea], the IC50 under setting [1] is more than 1000 nM.

Turning to `CC(=O)N1CCC(N(C(=O)Nc2cc(F)c(C)nc2OC(F)F)c2ccccc2C(C)C)CC1` [Example 218, 1-(1-acetylpiperidin-4-yl)-3-(2-(difluoromethoxy)-5-fluoro-6-methylpyridin-3-yl)-1-(2-isopropylphenyl)urea], the IC50 (LPAR1 IC50) was 10 to 100 nM.

On to `COc1ccc(NC(=O)N(c2ccccc2C(C)C)[C@@H]2CCN(C(C)=O)C[C@H]2F)c(OC(F)F)n1` (racemic) [Example 46, rac-1-((3R,4R)-1-acetyl-3-fluoropiperidin-4-yl)-3-(2-(difluoromethoxy)-6-methoxypyridin-3-yl)-1-(2-isopropylphenyl)urea], for which the IC50 (LPAR1 IC50) was in the range of 10 to 100 nM.

Take `COc1ccc(NC(=O)N(c2ccccc2C(C)C)[C@H]2CCN(C(C)=O)C[C@H]2F)c(OC(F)F)n1` [Example 48, 1-((3R,4S)-1-acetyl-3-fluoropiperidin-4-yl)-3-(2-(difluoromethoxy)-6-methoxypyridin-3-yl)-1-(2-isopropylphenyl)urea]: the IC50 (LPAR1 IC50) is 10 to 100 nM.

Regarding `Cc1ccc(NC(=O)N(c2ccccc2C(C)C)[C@H]2C[C@@H](C(=O)O)C2)c(OC(F)F)n1` [Example 162, cis-3-(3-(2-(difluoromethoxy)-6-methylpyridin-3-yl)-1-(2-isopropylphenyl)ureido)cyclobutane-1-carboxylic acid], the IC50 under setting [1] lay in the range of 100 to 1000 nM.

With `CC(C)c1ccccc1N(C(=O)Nc1ccc(Cl)cn1)[C@H]1C[C@@H](CC(=O)O)C1` [Example 306], the IC50 under setting [1] was 100 to 1000 nM.

For `CC(C)c1ccccc1N(C(=O)Nc1ccc(C2CC2)nc1OC(F)F)[C@H]1CC[C@H](C(=O)O)CC1` [Example 232], the IC50 under setting [1] lay in the range of 10 to 100 nM.

With `Cc1ccc(NC(=O)N(c2ccccc2C(C)C)[C@H]2CC[C@@H](C#N)CC2)c(OC(F)F)n1` [Example 240, 1-((1s,4s)-4-cyanocyclohexyl)-3-(2-(difluoromethoxy)-6-methylpyridin-3-yl)-1-(2-isopropylphenyl)urea], under setting [1], the IC50 was in the range of 100 to 1000 nM.

With `Cc1ccc(NC(=O)N(c2ccccc2C(C)C)[C@H]2CCN(S(C)(=O)=O)C2)c(OC(F)F)n1` [Example 75, (S)-3-(2-(difluoromethoxy)-6-methylpyridin-3-yl)-1-(2-isopropylphenyl)-1-(1-(methylsulfonyl)pyrrolidin-3-yl)urea], the IC50 under setting [1] fell in the range of 10 to 100 nM.

For the compound `COc1ccc(NC(=O)N(c2ccccc2C(C)C)C23CCN(C(C)=O)CC2C3)c(OC(F)F)n1` (stereo not shown) [Example 61, 1-(3-acetyl-3-azabicyclo[4.1.0]heptan-6-yl)-3-(2-(difluoromethoxy)-6-methoxypyridin-3-yl)-1-(2-isopropylphenyl)urea], where the note is “LPAR1 IC50”, the IC50 lay in the range of 10 to 100 nM.

For `CC(=O)N1CCC2(CC1)CC(N(C(=O)Nc1ccc(C)nc1OC(F)F)c1ccccc1C(C)C)C2` [Example 251, 1-(7-acetyl-7-azaspiro[3.5]nonan-2-yl)-3-(2-(difluoromethoxy)-6-methylpyridin-3-yl)-1-(2-isopropylphenyl)urea], the IC50 under setting [1] is more than 1000 nM.

Take `COc1ccc(NC(=O)N(c2ccccc2C(C)C)[C@H]2CC[C@H](C(=O)O)CC2)c(O)n1` [Example 254]: the IC50 under setting [1] was more than 1000 nM.

Consider `CC(=O)N1CCC(N(C(=O)Nc2ccc(C(F)(F)F)nc2C)c2ccccc2C(C)C)CC1` [Example 88], for which, for the setting “LPAR1 IC50”, the IC50 is more than 1000 nM.

Take `CC(C)Oc1ccc(NC(=O)N(c2ccccc2C(C)C)[C@H]2CC[C@H](C(=O)O)CC2)c(OC(C)C)n1` [Example 252, (1r,4r)-4-(3-(2,6-diisopropoxypyridin-3-yl)-1-(2-isopropylphenyl)ureido)cyclohexane-1-carboxylic acid]: the IC50 under setting [1] was 100 to 1000 nM.

`Cc1ccc(NC(=O)N(c2ccccc2C(C)C)C2CN(C(=O)CC#N)C2)c(OC(F)F)n1` [Example 81, 1-(1-(2-cyanoacetyl)azetidin-3-yl)-3-(2-(difluoromethoxy)-6-methylpyridin-3-yl)-1-(2-isopropylphenyl)urea]: the IC50 under setting [1] is 10 to 100 nM.

For `Cc1ccc(NC(=O)N(c2ccccc2C(C)C)C2CCC(NS(C)(=O)=O)CC2)c(OC(F)F)n1` (stereo not shown) [Example 269, N-(4-(3-(2-(difluoromethoxy)-6-methylpyridin-3-yl)-1-(2-isopropylphenyl)ureido)cyclohexyl)methanesulfonamide], under setting [1], the IC50 was in the range of 10 to 100 nM.

As for `Cc1ccc(NC(=O)N(c2ccccc2C(C)C)[C@H]2C[C@H](C(=O)O)C2)c(OC(F)F)n1` [Example 161, trans-3-(3-(2-(difluoromethoxy)-6-methylpyridin-3-yl)-1-(2-isopropylphenyl)ureido)cyclobutane-1-carboxylic acid], under setting [1], the IC50 was 10 to 100 nM.

As for `COc1cc(Cl)c(F)cc1NC(=O)N(c1ccccc1C(C)C)[C@H]1C[C@@H](CC(=O)O)C1` [Example 330], the IC50 under setting [1] was less than 10 nM.

With `COc1ccc(NC(=O)N(c2ccccc2C(C)C)[C@H]2CC[C@H](C(=O)O)CC2)c(OCc2ccccc2)n1` [Example 253, (1r,4r)-4-(3-(2-(benzyloxy)-6-methoxypyridin-3-yl)-1-(2-isopropylphenyl)ureido)cyclohexane-1-carboxylic acid], the IC50 under setting [1] lay in the range of 10 to 100 nM.

For the compound `Cc1ccc(NC(=O)N(c2ccccc2C(C)C)C2CC2)c(OC(F)F)n1` [Example 13, 1-cyclopropyl-3-(2-(difluoromethoxy)-6-methylpyridin-3-yl)-1-(2-isopropylphenyl)urea], the IC50 under setting [1] was more than 1000 nM.

As for `COc1ccc(NC(=O)N(c2ccccc2C(C)C)C2CCN(C(C)=O)CC2)c(OCC(F)F)n1` [Example 106], the IC50 (LPAR1 IC50) fell in the range of 10 to 100 nM.

Consider `Cc1ccc(NC(=O)N(CC23CC(C(=O)O)(C2)C3)c2ccccc2C(C)C)c(OC(F)F)n1` [Example 173], for which the IC50 under setting [1] was in the range of 10 to 100 nM.

As for `Cc1ccc(NC(=O)N(C[C@@H]2CCN2C(=O)OC(C)(C)C)c2ccccc2C(C)C)c(OC(F)F)n1` [Example 12, tert-butyl (S)-2-((3-(2-(difluoromethoxy)-6-methylpyridin-3-yl)-1-(2-isopropylphenyl)ureido)methyl)azetidine-1-carboxylate], under setting [1], the IC50 is more than 1000 nM.

Regarding `COc1ccc(NC(=O)N(c2ccccc2C(C)C)[C@H]2CC[C@H](S(C)(=O)=O)CC2)c(OC(F)F)n1` [Example 258, 3-(2-(difluoromethoxy)-6-methoxypyridin-3-yl)-1-(2-isopropylphenyl)-1-((1r,4r)-4-(methylsulfonyl)cyclohexyl)urea], under setting [1], the IC50 is 100 to 1000 nM.

As for `COc1cc(Br)c(F)cc1NC(=O)N(c1ccccc1C(C)C)[C@H]1CC[C@H](C(=O)O)CC1` [Example 299, (1r,4r)-4-(3-(4-bromo-5-fluoro-2-methoxyphenyl)-1-(2-isopropylphenyl)ureido)cyclohexane-1-carboxylic acid], under setting [1], the IC50 is less than 10 nM.

On to `CC(=O)N1CCC(N(C(=O)Nc2ccc(C)nc2OC(F)F)c2cccnc2C(C)C)CC1` [Example 31, 1-(1-acetylpiperidin-4-yl)-3-(2-(difluoromethoxy)-6-methylpyridin-3-yl)-1-(2-isopropylpyridin-3-yl)urea], for which the IC50 (LPAR1 IC50) lay within 100 to 1000 nM.

Take `COc1ccc(NC(=O)N(c2ccccc2C(C)C)[C@H]2C[C@]3(C[C@H]3C(=O)O)C2)c(OC(F)F)n1` [Example 150]: under setting [1], the IC50 is less than 10 nM.
